In one experiment the test system is Target C. Kind of experiment: HiBit protein abundance assay, Target C. The format is cell-based. As to conditions: Homo sapiens; K562 HiBiT-modified cells, 24 hours, luminescence. The protocol: (§1) Compounds described herein were used to screen for effects on quantitative protein abundance using a HiBit assay system (Promega). Quantitative protein abundance was determined by measuring the protein levels of HiBit-tagged protein targets expressed in cell culture via luminescence using the Nano-Glo HiBiT Lytic Detection System, which uses a split complementation assay format to reconstitute NanoBiT enzyme to generate a luminescent signal. A protein abundance assay was developed such that endogenous protein targets could be modified with the HiBiT peptide tag and their abundance could be assessed after compound treatment. Briefly, K562 cell lines containing a HiBiT-modification were treated with various compounds described herein (e.g., compounds of Formulas (I), (II), or (III)). After treatment for 24 hours, the protein abundance of a specific target was determined by measuring luminescence. • Promega Nano-Glo HiBiT Lytic Detection System (cat #N3030) • Corning 384-well TC-treated microplates (cat #3570) • Synthego Engineered Cells Knock-In Clones Cells were maintained in IMDM with 10% FBS. Before the assay, cells were diluted with phenolphthalein-free growth media (IMDM+1% FBS media) and were seeded in a 384-well plate at a density of 10000 cells/well (for each cell line listed in Table 6). Each compound was prepared as a 10-point 3-fold serial dilution in DMSO with the top dose at a final concentration of 10 μM in the well. Unmodified K562 cells were added at the previously specified density with DMSO to serve as an assay baseline and positive control (PC) and DMSO only with the respective modified cell lines was added to the negative control (NC) columns. Final DMSO concentration was kept at or below 0.25%. Treated cell plates were placed in an incubator at 37° C. with 5% CO2 for 24 hours. After 24 hours, 25 μL of Complete HiBit Lytic reagent was added to each well at room temperature (e.g. one plate requiring 10 mL Lytic Buffer, 100 μL LgBiT Protein, 200 μL Lytic Substrate), shaken for 5 minutes at 600 RPM, then left to sit for 10 minutes for signal to stabilize before reading on a Spark Cyto plate reader (Tecan) with a 500 ms measurement time. To determine compound effects on protein abundance of each target in Table 6, the percent response for each respective cell line was calculated at each compound concentration as follows: For the normalized response at each concentration, a four-parameter logistical regression was fit to the data and the response was interpolated at the 50% value to determine a concentration for protein abundance at 50% (IC50) the untreated control.
(In general: With HiBiT, luminescence reflects the tagged protein that the partner subunit can reach.)

For experiment [1], the system named is HiBiT-tagged HTT protein in K562 cells. Kind of experiment: HiBit protein abundance assay, HTT. The format is cell-based, human. To be noted: K562 HiBiT-modified cells, 24 hours, luminescence. On the procedure:
as §1, with “Clones [table]” for “Clones”

Where a name gives a salt, the structure may show the parent alone. Where only a bound is given, the exact number is not on record here.

On to `Cn1cc2cc(-c3cc(F)c4nn(C5CCNCC5)cc4c3)cc(C#N)c2n1` [Compound 130, 5-[7-fluoro-2-(4-piperidyl)indazol-5-yl]-2-methyl-indazole-7-carbonitrile], for which the IC50 (in the experiment with Target C; in experiment [1]) was < 100 nM throughout.

Regarding `COc1cc(-c2cc3cn(C)nc3cc2O)nc2cn(C3CCNCC3)nc12` [Compound 140, 5-[7-methoxy-2-(4-piperidyl)pyrazolo[4,3-b]pyridin-5-yl]-2-methyl-indazol-6-ol], the IC50 (in the experiment on Target C; in experiment [1]) was 1000 to 10000 nM each time.

Turning to `Cc1cc(-n2cc3cc(N4CCNCC4)cc(F)c3n2)cc2cn(C)nc12` [Compound 117, 2-(2,7-dimethylindazol-5-yl)-7-fluoro-5-piperazin-1-yl-indazole], the IC50 (commonly the concentration at which inhibition is half-maximal) in the experiment with Target C is > 10000 nM; in experiment [1], 1000 to 10000 nM.

As to `Cn1cc2cc(-c3cc(F)c4nn(C5CCNCC5)nc4c3)cc(F)c2n1` [Compound 103, 4-fluoro-6-(7-fluoro-2-methyl-indazol-5-yl)-2-(4-piperidyl) benzotriazole], the IC50 (with Target C; in experiment [1]) was 100 to 1000 nM in each case.

Turning to `Cn1cc2cc(-c3cc(F)c4nn(C5CCNC6(CC6)C5)cc4c3)cc(F)c2n1` (stereo not drawn) [Compound 108, 2-(4-azaspiro[2.5]octan-7-yl)-7-fluoro-5-(7-fluoro-2-methyl-indazol-5-yl)indazole], the IC50 (with Target C; in experiment [1]) was 100 to 1000 nM each time.

Consider `Cn1cc2cc(-c3cc(F)c4nn(C5CCNCC5)cc4c3)ccc2n1` [Compound 145, 7-fluoro-5-(2-methylindazol-5-yl)-2-(4-piperidyl)indazole], for which the IC50 (in the experiment on Target C; in experiment [1]) was 100 to 1000 nM each time.

For `Cc1cn2nc(-c3cc(F)c4nn(C5CCN(CCF)CC5)cc4c3)cc(C)c2n1` [Compound 152], the IC50 in the experiment on Target C is 100 to 1000 nM; in experiment [1], < 100 nM.

`Cc1cn2nc(-c3cc(F)c4nn([C@@H]5CCNC[C@H]5F)cc4c3)cc(C)c2n1` [Compound 168, 6-(7-fluoro-2-((3R,4R)-3-fluoropiperidin-4-yl)-2H-indazol-5-yl)-2,8-dimethylimidazo [1,2-b]pyridazine]: the IC50 in the experiment on Target C was 100 to 1000 nM; in experiment [1], < 100 nM.

Consider `Cc1cn2nc(-c3cc(F)c4nn(C5CCN(C)CC5)cc4c3)cc(C)c2n1` [Compound 150, 6-[7-fluoro-2-(1-methyl-4-piperidyl)indazol-5-yl]-2,8-dimethyl-imidazo[1,2-b]pyridazine], for which the IC50 (in the experiment with Target C; in experiment [1]) was < 100 nM in each case.

For the molecule `COC1=C(C)C2N=C(C)OC2C=C1c1cc(F)c2nn(C3CCNCC3)cc2n1` (stereo not drawn) [Compound 144], the IC50 (with Target C; in experiment [1]) was 1000 to 10000 nM each time.

As for `Cc1cn2nc(-c3cc4cn(C5CCNCC5)nc4c(OCc4ccccc4)n3)cc(C)c2n1` [Compound 153, 6-[7-benzyloxy-2-(4-piperidyl)pyrazolo [3,4-c]pyridin-5-yl]-2,8-dimethyl-imidazo[1,2-b]pyridazine], the IC50 (with Target C; in experiment [1]) was 1000 to 10000 nM in each case.

With `Cc1cn2nc(-c3cc(F)c4nn(C5CCN(CCO)CC5)cc4c3)cc(C)c2n1` [Compound 160, 2-[4-[5-(2,8-dimethylimidazo[1,2-b]pyridazin-6-yl)-7-fluoro-indazol-2-yl]-1-piperidyl]ethanol], the concentration for half-maximal inhibition (IC50) (in the experiment with Target C; in experiment [1]) was < 100 nM throughout.

On to `Cc1cn2nc(-c3cc(O)c4nn(C5CCNCC5)cc4c3)cc(C)c2n1` [Compound 156, 5-(2,8-dimethylimidazo[1,2-b]pyridazin-6-yl)-2-(piperidin-4-yl)-2H-indazol-7-ol], for which the values for the IC50 (in the experiment on Target C; in experiment [1]) were 1000 to 10000 nM and 100 to 1000 nM, respectively.

As for `Cc1cn2nc(-c3cc4cn(C5CCNCC5)nc4cn3)cc(C)c2n1` [Compound 147, 2,8-dimethyl-6-[2-(4-piperidyl)pyrazolo[3,4-c]pyridin-5-yl]imidazo[1,2-b]pyridazine], the IC50 (with Target C; in experiment [1]) was 100 to 1000 nM each time.

On to `Cc1cn2cc(-c3cc(F)c4nn(C5CCNCC5)cc4c3)cc(Cl)c2n1` [Compound 127, 5-(8-chloro-2-methylimidazo[1,2-a]pyridin-6-yl)-7-fluoro-2-(piperidin-4-yl)-2H-indazole hydrochloride salt], for which the IC50 (with Target C; in experiment [1]) was < 100 nM each time.

As for `Cc1c(O)c(-c2cc(F)c3nn(C4CCNCC4)cc3c2)cc2cn(C)nc12` [Compound 126, 5-[7-fluoro-2-(4-piperidyl)indazol-5-yl]-2,7-dimethyl-indazol-6-ol], the IC50 (in the experiment on Target C; in experiment [1]) was 1000 to 10000 nM throughout.

For `Cc1cn2nc(-n3cc4cc(C5CCNCC5)cc(F)c4n3)cc(C)c2n1` [Compound 120, 6-[7-fluoro-5-(4-piperidyl)indazol-2-yl]-2,8-dimethyl-imidazo[1,2-b]pyridazine], the IC50 with Target C is > 10000 nM; in experiment [1], 1000 to 10000 nM.

With `Cc1cn2nc(-c3ccc4nn(C5CCNCC5)cc4c3)cc(C)c2n1` [Compound 192, 2,8-dimethyl-6-[2-(4-piperidyl)indazol-5-yl]imidazo[1,2-b]pyridazine], the results for the IC50 (in the experiment on Target C; in experiment [1]) were 100 to 1000 nM and < 100 nM, respectively.

On to `Cc1nc2c(C)c(O)c(-c3cc(F)c4nn(C5CCNCC5)cc4c3)cc2o1` [Compound 123, 6-[7-fluoro-2-(4-piperidyl)indazol-5-yl]-2,4-dimethyl-1,3-benzoxazol-5-ol], for which the IC50 (with Target C; in experiment [1]) was 100 to 1000 nM in each case.

In the case of `Cc1cn2cc(-c3cc(F)c4nn(C5CCNCC5)cc4c3)cc(F)c2n1` [Compound 129, 7-fluoro-5-(8-fluoro-2-methylimidazo[1,2-a]pyridin-6-yl)-2-(piperidin-4-yl)-2H-indazole], the IC50 (in the experiment on Target C; in experiment [1]) was < 100 nM in each case.

For `Cc1cn2nc(-c3cc(F)c4nn([C@H]5CCNC6(CC6)C5)cc4c3)cc(C)c2n1` [Compound 172], the IC50 (in the experiment with Target C; in experiment [1]) was < 100 nM throughout.

For the molecule `Cc1cn2nc(-c3cc(F)c4nn(C5CCN(C6CCC6)CC5)cc4c3)cc(C)c2n1` [Compound 151, 6-[2-(1-cyclobutyl-4-piperidyl)-7-fluoro-indazol-5-yl]-2,8-dimethyl-imidazo [1,2-b] pyridazine], the IC50 (in the experiment on Target C; in experiment [1]) was < 100 nM each time.

Take `Fc1cc(-c2ccc3ccncc3c2)cc2cn(C3CCNCC3)nc12` [Compound 158, 7-[7-fluoro-2-(4-piperidyl)indazol-5-yl]isoquinoline]: the IC50 (in the experiment with Target C; in experiment [1]) was 1000 to 10000 nM in each case.

For the molecule `Cc1cn2nc(-c3cc(F)c4nn(C5CCN(C)C6(CC6)C5)cc4c3)cc(C)c2n1` (stereo not drawn) [Compound 174, 6-[7-fluoro-2-(4-methyl-4-azaspiro[2.5]octan-7-yl)indazol-5-yl]-2,8-dimethyl-imidazo[1,2-b]pyridazine], the IC50 (with Target C; in experiment [1]) was < 100 nM in each case.
